Consider 5 compounds from US20250179057A1, “MEK IMMUNE ONCOLOGY INHIBITORS AND THERAPEUTIC USES THEREOF” (Immuneering Corporation, priority 2022, published 2025).

Data set [1] relates to human hepatocytes. Briefly: Hepatocyte stability, human. It is filed as in vitro ADME. To be noted: 2 μM, 0.5 million cells/ml; for % Remaining At T120 / T1/2: 120 min. On the procedure:
(§1) In this study, human, cynomolgus monkey, beagle dog, wistar hannover rat, and balb/c mouse hepatocyle stability was determined.

Data set [2] can be described thus: Plasma stability, mouse plasma (Balb/c; Table 5 head CD-1 Mouse). In kind it is in vitro ADME. Conditions: balb/c plasma, 2 μM, anti-coagulant K2-EDTA; for % Remaining at T120: 120 min; for half-life at 2 μM: mouse, pH 7.4, read-out: T1/2. On the procedure: (§2) Individual stock solutions of propantheline and lovastatin were prepared at 10 mM in DMSO and were further diluted to 2 mM with DMSO.
(§3) Frozen matrices (Balb/c mouse, Wistar Han rat, Beagle dog, and human plasma containing K2EDTA as anti-coagulant) were thawed and centrifuged at 3100 rpm for 10 minutes at 4° C. to remove particulates. The lipid layer was then removed, and the supernatant was transferred to a new tube without disturbing the pellet. After the matrices were incubated at 37° C. for at least 10 minutes, the pH of each matrix was adjusted to pH 7.4, using 10% phosphoric acid or 1N sodium hydroxide as necessary. Test and control article stock solutions were spiked (2 μL) into matrix (1.998 mL) and mixed to final assay concentration of […]. Duplicate 30-μL aliquots of spiked plasma were transferred to matrix tubes in 96-well plate immediately after spiking for timepoints of 0, 30, 60, 120, 240, and 360 minutes. These tubes were then incubated at 37° C. with shaking and at each timepoint, the corresponding tubes containing samples were quenched with 180 μL of cold acetonitrile containing the internal standards. The quenched samples were vortex-mixed briefly and stored refrigerated. After the final time point (360 minutes), the plates with all quenched samples were vortex-mixed for 10 minutes and then centrifuged at 3100 rpm for 10 minutes at 4° C. to sediment the precipitated protein. The supernatant (50 μL) was transferred to a clean 96-well plate and diluted with 100 μL of water. The plates were stored refrigerated until analysis.
(§4) Data Analysis: Peak area ratios for IS-normalized test article and control article counts were used to calculate the percent remaining relative to the time zero (T0) value. As appropriate, results were plotted and further analyzed to calculate half-life (T1/2) values.
(§5) Mean peak area ratios were used to calculate the % remaining relative to the T0 value:
(§6) In this study, human, cynomolgus monkey, beagle dog, wistar hannover rat, and balb/c plasma stability was determined. Table 28 describes the results of the human plasma stability at 2 μM concentration and anti-coagulant K2-EDTA from 10 to 120 min. Table 29 describes the results of the cynomolgus monkey plasma stability at 2 μM concentration and anti-coagulant K2-EDTA. Table 30 describes the results of the beagle dog plasma stability at 2 μM concentration and anti-coagulant K2-EDTA. Table 31 describes the results of the wistar hannover rat plasma stability at 2 μM concentration and anti-coagulant K2-EDTA. Table 32 describes the results of the balb/c plasma stability at 2 μM concentration and anti-coagulant K2-EDTA.

The target in data set [3] is T1, CYP2C8 (Homo sapiens, UniProt P10632).
T1 sequence (P10632 1-490): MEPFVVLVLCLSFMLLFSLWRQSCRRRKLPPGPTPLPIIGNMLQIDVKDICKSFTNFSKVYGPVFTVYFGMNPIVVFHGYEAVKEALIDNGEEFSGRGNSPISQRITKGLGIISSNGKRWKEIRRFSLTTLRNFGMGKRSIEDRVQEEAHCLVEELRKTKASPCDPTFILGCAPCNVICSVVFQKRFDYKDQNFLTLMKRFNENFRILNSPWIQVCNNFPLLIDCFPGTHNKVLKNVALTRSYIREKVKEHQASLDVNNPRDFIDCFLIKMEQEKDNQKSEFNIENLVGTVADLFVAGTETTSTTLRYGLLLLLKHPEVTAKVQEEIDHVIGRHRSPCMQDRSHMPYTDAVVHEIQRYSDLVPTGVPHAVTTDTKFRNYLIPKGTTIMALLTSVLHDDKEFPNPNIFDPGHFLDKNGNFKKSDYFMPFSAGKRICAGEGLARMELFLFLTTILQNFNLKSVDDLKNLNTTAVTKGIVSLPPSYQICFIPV
Briefly: CYP450 panel inhibition in human liver microsomes, 2C8 (amodiaquine). To be noted: 10 μM, substrate amodiaquine. For orientation: Microsomes from liver hold many membrane-bound enzymes, among them those of drug oxidation.

In data set [4] the target is CYP3A4 (Homo sapiens, UniProt P08684). Briefly: CYP450 panel inhibition in human liver microsomes, 3A4 (midazolam / testosterone). To be noted: 10 μM; for CYP-3A4 (Midazolam) mean percentage CYP inhibition: substrate midazolam; for CYP-3A4 (Testosterone) mean percentage CYP inhibition: substrate testosterone.
A short description of data set [5]: Plasma stability, rat plasma (Wistar Han / wistar hannover; Table 5 head SD Rat). Conditions: wistar hannover rat plasma, 2 μM, anti-coagulant K2-EDTA; for % Remaining at T120: 120 min; for half-life at 2 μM: pH 7.4, read-out: T1/2. In kind it is in vitro ADME. On the procedure:
as §2, §3, §4, §5, §6

Data set [6] can be described thus: Plasma stability, beagle dog plasma (K2EDTA). It is filed as in vitro ADME. To be noted: beagle dog plasma, 2 μM, anti-coagulant K2-EDTA; for % Remaining at T120: 120 min; for half-life at 2 μM: pH 7.4, read-out: T1/2.
A short description of data set [7]: Plasma stability, human plasma (K2EDTA). In kind it is in vitro ADME. Conditions: human plasma, 2 μM, anti-coagulant K2-EDTA; for T1/2 / half-life at 2 μM: 10 to 120 min; for % Remaining at T120: 120 min; for half-life at 2 μM: pH 7.4, read-out: T1/2.
Data set [8] is described as follows: Plasma stability, cynomolgus monkey plasma (K2-EDTA). It is filed as in vitro ADME. To be noted: for T1/2 / % Remaining at T120: 2 μM, anti-coagulant K2-EDTA; for % Remaining at T120: 120 min; for half-life at 2 μM: plasma (K2EDTA), pH 7.4, anti-coagulant K2-EDTA. As to the method:
as §2, §3, §4, §5, §6

Data set [9] can be described thus: PAMPA (pH 7.4). In kind it is in vitro ADME. Conditions: PAMPA; pH = 7.4 (Table 14). Background: In PAMPA a lipid-coated filter parts donor from acceptor wells.
The nature of data set [10]: Hepatocyte stability, wistar hannover rat. In kind it is in vitro ADME. Conditions: 0.5 million cells/ml; for CLint scaled at 2 μM: Wistar Hannover, rat, hepatocytes; for half-life at 2 μM: wistar hannover rat hepatocytes. On the procedure: as §1
The nature of data set [11]: Hepatocyte stability, balb/c mouse. It is filed as in vitro ADME. To be noted: 0.5 million cells/ml; for CLint scaled at 2 μM: BALB/c, mouse, hepatocytes; for half-life at 2 μM: balb/c mouse hepatocytes. On the procedure:
as §1

Data set [12] can be described thus: Hepatocyte stability, beagle dog. It is filed as in vitro ADME. Conditions: 0.5 million cells/ml; for half-life at 2 μM: beagle dog hepatocytes; for CLint scaled at 2 μM: beagle, dog, hepatocytes. As to the method:
as §1

The mark [13] stands for this setting: read-out: CLint (L/hr/kg) (converted).

Molecules are shown by their SMILES. Counter-ions that a name gives are not always drawn. Some results are limits rather than exact numbers.

Chain of CYP3A4 (P08684 whole entry): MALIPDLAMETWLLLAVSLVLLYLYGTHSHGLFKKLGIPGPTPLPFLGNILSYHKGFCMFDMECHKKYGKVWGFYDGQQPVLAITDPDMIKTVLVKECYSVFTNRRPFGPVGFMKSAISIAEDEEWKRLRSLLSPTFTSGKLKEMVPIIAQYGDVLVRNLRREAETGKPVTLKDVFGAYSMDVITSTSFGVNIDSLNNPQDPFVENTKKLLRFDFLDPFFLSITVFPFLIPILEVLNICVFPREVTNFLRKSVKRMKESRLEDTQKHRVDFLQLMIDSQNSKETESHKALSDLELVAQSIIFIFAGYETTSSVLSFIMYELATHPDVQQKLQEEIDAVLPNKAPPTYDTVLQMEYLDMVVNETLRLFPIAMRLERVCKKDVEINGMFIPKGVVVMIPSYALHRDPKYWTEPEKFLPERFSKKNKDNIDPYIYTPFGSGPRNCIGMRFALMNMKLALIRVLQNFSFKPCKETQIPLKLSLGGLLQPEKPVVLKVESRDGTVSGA

As to `CNS(=O)(=O)Nc1cccc(Cc2c(CN(C)C)c3cc(F)c(OC(=O)N(C)C)cc3oc2=O)c1F` [Compound 25], in data set [1], the “CLint (L/hr/kg)” value was 0.00218 L/h/kg, the “CLint (mL/min/kg)” value is reported as 0.0363 mL/min/kg and the “% Remaining At T120” value is on record as 99.9%. In [2], the “T1/2” value is over 2 h and the “% Remaining at T120” value was found to be 99.9%. Besides, the “CYP-2C8 (Amodiaquine) mean percentage CYP inhibition” value in data set [3] was found to be 77.2%. In [4], the “CYP-3A4 (Midazolam) mean percentage CYP inhibition” value was found to be 48.5% and the “CYP-3A4 (Testosterone) mean percentage CYP inhibition” value was 47.2%. In addition, in data set [5], the “T1/2” value was determined as 55.43 h and the “% Remaining at T120” value is 95.5%. For the same compound, in data set [6], the “T1/2” value is 9.88 h and the “% Remaining at T120” value was 90.1%. For the same compound, in [7], the “T1/2” value is over 2 h and the “% Remaining at T120” value came out at 112.1%. In addition, in data set [8], the “T1/2” value was over 2 h and the “% Remaining at T120” value came out at 107.3%.

As for `CCS(=O)(=O)Nc1cccc(Cc2c(CN(C)C)c3ccc(OC(=O)N(C)C)cc3oc2=O)c1F` [Compound 120], the “CLint (L/hr/kg)” value in [1] was 2.02 L/h/kg. Moreover, in data set [1], the “CLint (mL/min/kg)” value is recorded as 33.6 mL/min/kg. For the same compound, in data set [1], the “% Remaining At T120” value is 47.4%. Further, the “T1/2” value in data set [1] is 1.85 h; in [2], 238.68 h; in [5] it was 42.68 h; in data set [6], over 2 h; in [7] it was over 2 h; in data set [8], over 2 h. Moreover, the “% Remaining at T120” value is 94.2% in data set [2]; 96.8% in data set [5]; 100.9% in data set [6]; 123.8% in data set [7]; 107.3% in data set [8]. Also, in data set [3], the “CYP-2C8 (Amodiaquine) mean percentage CYP inhibition” value was 21.9%. In addition, in data set [4], the “CYP-3A4 (Midazolam) mean percentage CYP inhibition” value was found to be 11.4%. In addition, the “CYP-3A4 (Testosterone) mean percentage CYP inhibition” value in data set [4] was 12.6%.

As for `CNS(=O)(=O)Nc1nccc(Cc2c(CN(C)C)c3ccc(OC(=O)N(C)C)cc3oc2=O)c1F` [Compound 124], the “CLint (L/hr/kg)” value in [1] worked out at 0.953 L/h/kg. The “CLint (mL/min/kg)” value in data set [1] is 15.9 mL/min/kg. The “% Remaining At T120” value in data set [1] was 70.3%. For the same compound, the “T1/2” value was 3.93 h in [1]; over 2 h in [2]; over 2 h in data set [5]; 94.15 h in data set [6]; 10.5 h in data set [7]; 21.32 h in data set [8]. Further, the “% Remaining at T120” value in [2] was found to be 105.4%; in [5], 100.3%; in data set [6], 101.5%; in data set [7], 85.0%; in data set [8] it was 95.9%. For the same compound, the “CYP-2C8 (Amodiaquine) mean percentage CYP inhibition” value in [3] amounted to 59.0%. Further, in [4], the “CYP-3A4 (Midazolam) mean percentage CYP inhibition” value was determined as 63.2%. For the same compound, the “CYP-3A4 (Testosterone) mean percentage CYP inhibition” value in data set [4] came out at 62.6%.

In the case of `CNS(=O)(=O)Nc1cccc(Cc2c(CN3CCNCC3)c3cc(Cl)c(OC(=O)N(C)C)cc3oc2=O)c1Cl` [Compound 256, 6-chloro-3-(2-chloro-3-((N-methylsulfamoyl)amino)benzyl)-2-oxo-4-(piperazin-1-ylmethyl)-2H-chromen-7-yl dimethylcarbamate hydrochloride], the “% Remaining At T120” value in data set [1] stood at 91.4%. In addition, the “% Remaining at T120” value in [2] stood at 86.8%; in data set [5] it was 97.2%; in [6], 99.4%; in [7], 84.8%; in data set [8] it was 95.0%. The half-life at 2 μM is 9.77 h in [2]; 1.75 h in [10]; 179 h in [5]; over 2 h in data set [6]; 3.28 h in data set [11]; 2.98 h in data set [12]. In addition, the half-life at 2 μM stood at 14 h in [7] and 28.5 h in data set [8]. Moreover, the Papp (as a rule, a coefficient for how fast a substance crosses the barrier) at 4 h, 50 μM in data set [9] is 40 nm/s. Also, the “CYP-3A4 (Testosterone) mean percentage CYP inhibition” value in [4] stood at 69.2%. For the same compound, the CLint scaled at 2 μM in data set [10] (setting [13]) is 2.12 L/h/kg; in data set [10] (read-out: CLint (mL/min/kg)), 2.12 L/h/kg; in [11] (setting [13]), 4.98 L/h/kg; in data set [11] (read-out: CLint (mL/min/kg)) it was 4.98 L/h/kg; in data set [12] (setting [13]), 2.5 L/h/kg; in data set [12] (read-out: CLint (mL/min/kg)) it was 2.5 L/h/kg.

Turning to `CCS(=O)(=O)Nc1cccc(Cc2c(CN3CCNCC3)c3cc(Cl)c(OC(=O)N(C)C)cc3oc2=O)c1Cl` [Compound 257, 6-chloro-3-(2-chloro-3-(ethylsulfonamido)benzyl)-2-oxo-4-(piperazin-1-ylmethyl)-2H-chromen-7-yl dimethylcarbamate hydrochloride], in [1], the “% Remaining At T120” value turned out to be 89.1%. Moreover, the “% Remaining at T120” value turned out to be 87.5% in [2]; 91.5% in [5]; 100.9% in data set [6]; 96.3% in data set [7]; 98.0% in [8]. For the same compound, the half-life at 2 μM in [2] was 9.77 h; in data set [10], 1.75 h; in data set [5] it was 16.9 h; in [6], over 2 h; in data set [11], 3.43 h; in data set [12], 1.88 h. Also, the half-life at 2 μM in data set [7] amounted to 173 h; in data set [8] it was 20.1 h. In [9], this compound gave a Papp at 4 h, 50 μM of 80 nm/s. For the same compound, the “CYP-3A4 (Testosterone) mean percentage CYP inhibition” value in [4] worked out at 66.0%. Also, the CLint scaled at 2 μM is 2.13 L/h/kg in [10] (setting [13]); 2.13 L/h/kg in data set [10] (read-out: CLint (mL/min/kg)); 4.78 L/h/kg in [11] (setting [13]); 4.78 L/h/kg in [11] (read-out: CLint (mL/min/kg)); 3.96 L/h/kg in [12] (setting [13]); 3.97 L/h/kg in data set [12] (read-out: CLint (mL/min/kg)).
